# Patent publication US10793531B2, “Triazole derivatives and their use as PDE4 activators” (MIRONID LIMITED, priority 2015, dated 2020)
# Where two headings read alike, the source gives them in different places.
# What was measured:
# [1] = biological target: T1, full-length human PDE4A4 (Homo sapiens, UniProt P27815); assay: PDE4 radio-assay, PDE4A4 long form activation (Experiment 1); type: biochemical; conditions: n ≥ 2
# T1 construct: stably expressed the full-length human PDE4D5, PDE4A4 and PDE4B1 long isoforms; made in house; cytosol fraction of the lysate
# T1 sequence (P27815 whole entry, canonical isoform): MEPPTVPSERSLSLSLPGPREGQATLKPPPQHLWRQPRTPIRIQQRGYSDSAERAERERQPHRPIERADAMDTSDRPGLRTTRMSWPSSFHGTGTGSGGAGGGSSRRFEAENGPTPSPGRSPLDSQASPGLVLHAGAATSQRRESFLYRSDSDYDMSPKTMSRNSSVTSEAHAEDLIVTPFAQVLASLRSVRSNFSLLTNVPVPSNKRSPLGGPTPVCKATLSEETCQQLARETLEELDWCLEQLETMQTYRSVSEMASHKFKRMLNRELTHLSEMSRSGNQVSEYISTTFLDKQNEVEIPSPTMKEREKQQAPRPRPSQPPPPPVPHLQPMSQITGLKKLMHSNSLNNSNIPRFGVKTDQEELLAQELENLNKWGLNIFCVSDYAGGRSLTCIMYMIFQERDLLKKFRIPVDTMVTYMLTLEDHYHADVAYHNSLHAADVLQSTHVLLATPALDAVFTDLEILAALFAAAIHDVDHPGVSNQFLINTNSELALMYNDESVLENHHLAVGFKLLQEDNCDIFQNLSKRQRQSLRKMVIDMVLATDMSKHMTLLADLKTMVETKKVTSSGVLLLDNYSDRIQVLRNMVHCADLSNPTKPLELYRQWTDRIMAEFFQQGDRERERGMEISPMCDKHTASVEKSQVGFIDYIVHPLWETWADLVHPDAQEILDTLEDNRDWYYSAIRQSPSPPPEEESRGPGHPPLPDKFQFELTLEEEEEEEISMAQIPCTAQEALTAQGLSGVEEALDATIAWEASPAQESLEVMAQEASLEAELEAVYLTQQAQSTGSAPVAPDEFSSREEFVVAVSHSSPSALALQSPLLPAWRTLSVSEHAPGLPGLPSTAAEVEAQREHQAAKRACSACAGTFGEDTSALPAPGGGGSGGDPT
# Procedure: (§1) One suitable method of detecting whether or not a compound is capable of serving as an activator of a PDE4 long form is using a two-step radio-assay procedure described in Experiment 1. In summary, the method involves incubating a PDE4 long form with a test small molecule activator, together with [^3H]-labelled cAMP to assess alterations in the breakdown of cAMP to the 5′-adenosine monophosphate (5′-AMP) product. A sample of the reaction mixture from such an incubation is subsequently treated with snake venom 5′-nucleotidase to allow conversion of the nucleotide [^3H]-labelled 5′-AMP to the uncharged nucleoside [^3H]-labelled adenosine, which can be separated and quantified to assess PDE4 activity and the effect of the test compound (Thompson, W. J. and Appleman, M. M. Biochemistry 10: 311-316, 1971, with some modifications as described in: Marchmont, R. J. and Houslay, M. D. Biochem J. 187: 381-92, 1980).
# (§2) HEK 293 cells were transfected with pDEST™ PDE4 expression vectors using Lipofectamine LTX/Plus reagent (Invitrogen) as outlined by the manufacturer and clonal isolates expanded to obtain cell lines that stably expressed the full-length human PDE4D5, PDE4A4 and PDE4B1 long isoforms and the full length human PDE4B2 short isoform. These were called the HEK-PDE4D5, HEK-PDE4A4, HEK-PDE4B1 and HEK-PDE4B2 cell lines, respectively.
# (§3) HEK-PDE4D5 cells were seeded out in 100 mm plates and incubated at 37° C. in an atmosphere of 5% CO2, 95% air. Cell lysates were prepared using KHEM buffer [50 mM KCl, 10 mM EGTA, 50 mM HEPES (pH 7.2), 1.92 mM MgCl2].
# (§4) To prepare the cell lysates, the 100 mm plates containing the cells were placed on ice and washed with ice-cold PBS (phosphate buffered saline, pH 7.4). KHEM buffer (500 μl) was added to the cells. Cells were then scraped off the plate and triturated using a needle (BD Microlance™ 0.8, 40 mm). The lysed cells were then centrifuged at 2000 rpm for 10 minutes to remove cell debris and the supernatant (cell lysate containing recombinant PDE4D5) was transferred to a fresh tube and kept on ice.
# (§5) The cell lysate containing recombinant PDE4D5 was transferred into a centrifuge tube and placed into an ultracentrifuge (BECKMAN COULTER) and spun at high speed (100,000 g) for 30 minutes at 4° C. The cytosol fraction was then collected and its protein amount determined using a BCA protein assay.
# (§6) PDE assays were performed using a final concentration of 10 mM Tris/5 mM MgCl2 and 1 μM [3H]-cAMP (Perkin Elmer) plus PDE4D5 cell lysate cytosol fraction, containing over-expressed PDE4D5, with and without test compound. Incubations were performed at 30° C. for 5 minutes. The samples were then placed in a boiling water bath for 2 minutes to denature the PDE enzyme, and returned to ice. Samples were allowed to cool for 1.0 min after which snake venom 5′-nucleotidase (25 μl, 1 mg/ml; Sigma) was added. The tubes were vortexed and incubated in a water bath at 30° C. for 10 minutes, to attain conversion of [3H]-5′-AMP to [3H]-adenosine, and then placed on ice. Dowex ion exchange resin (Sigma) prepared as a 1:1 Dowex:water stock was thoroughly re-suspended and diluted 2:1 with ethanol. The resulting Dowex suspension (0.4 ml) was added to each tube. Tubes were vortexed to mix and then incubated on ice for at least 15 minutes before a final vortex. […] Tubes were vortexed thoroughly to mix and the recovered [3H]-adenosine was quantified by measuring counts over 1 minute in a scintillation counter.
# [2] = test system: HEK 293 cells; assay: Reduction of intracellular cAMP levels in forskolin stimulated HEK 293 cells (Experiment 2); type: cell-based, human; conditions: 10 μM compound for 10 min prior to forskolin (10 μM) for 2 min; FIG. 5
# Procedure: (§7) HEK 293 and MDCK cells (Public Health England, Cell Culture Collections) were maintained in DMEM supplemented with 10% (v/v) fetal bovine serum (Seralab), 2 mM L-glutamine, 1,000 U penicillin and 1,000 μg streptomycin (Life Technologies); termed complete media. Clonal HEK 293 cell lines were maintained in complete media supplemented with 0.6 mg/mL G418 (Enzo Life Sciences).
# (§8) HEK 293 or MDCK cells were seeded at 100,000 cells per well, and left to adhere overnight. The cells were then treated with the compound indicated (10 μM) for 10 minutes, prior to stimulation with forskolin (10 μM, Sigma) for 2 minutes. Media was aspirated, and hydrochloric acid (0.1M) was added to lyse the cells. The cAMP assay (Enzo Life Sciences) was performed according to the manufacturers instructions.
# [3] = Pharmacokinetic profile in male SD rats (Experiment 8); type: in vivo, rat
# Procedure: Example A was dissolved in 5% DMA+10% Solutol+85%(10% HPBCD in saline) to afford a clear dosing solution of 1 mg/mL. The dosing solution was administered to three rats at 2 mg/kg i.v. via the foot dorsal vein and to three further rats at 10 mg/kg p.o. via oral gavage. Blood samples (ca. 150 μL) were collected at 2, 5, 20 min, 1, 2, 4, 8, 12 and 24 h after i.v. dosing and at 5, 15, 30 min, 1, 2, 4, 8, 12 and 24 h after oral dosing. The blood samples were centrifuged at 4° C. (2000 g, 5 min) within 15 min of sample collection to obtain plasma samples. Plasma samples were stored at −80° C. until analysis. The samples were analysed by UPLC-MS/MS (API 4000).
# [4] = biological target: T2, full-length human PDE4B1 (Homo sapiens, UniProt Q07343); assay: PDE4 radio-assay, PDE4B1 long form activation (Experiment 1); type: biochemical; conditions: n ≥ 2
# T2 construct: stably expressed the full-length human PDE4D5, PDE4A4 and PDE4B1 long isoforms; made in house; cytosol fraction of the lysate
# T2 sequence (Q07343 whole entry, canonical isoform): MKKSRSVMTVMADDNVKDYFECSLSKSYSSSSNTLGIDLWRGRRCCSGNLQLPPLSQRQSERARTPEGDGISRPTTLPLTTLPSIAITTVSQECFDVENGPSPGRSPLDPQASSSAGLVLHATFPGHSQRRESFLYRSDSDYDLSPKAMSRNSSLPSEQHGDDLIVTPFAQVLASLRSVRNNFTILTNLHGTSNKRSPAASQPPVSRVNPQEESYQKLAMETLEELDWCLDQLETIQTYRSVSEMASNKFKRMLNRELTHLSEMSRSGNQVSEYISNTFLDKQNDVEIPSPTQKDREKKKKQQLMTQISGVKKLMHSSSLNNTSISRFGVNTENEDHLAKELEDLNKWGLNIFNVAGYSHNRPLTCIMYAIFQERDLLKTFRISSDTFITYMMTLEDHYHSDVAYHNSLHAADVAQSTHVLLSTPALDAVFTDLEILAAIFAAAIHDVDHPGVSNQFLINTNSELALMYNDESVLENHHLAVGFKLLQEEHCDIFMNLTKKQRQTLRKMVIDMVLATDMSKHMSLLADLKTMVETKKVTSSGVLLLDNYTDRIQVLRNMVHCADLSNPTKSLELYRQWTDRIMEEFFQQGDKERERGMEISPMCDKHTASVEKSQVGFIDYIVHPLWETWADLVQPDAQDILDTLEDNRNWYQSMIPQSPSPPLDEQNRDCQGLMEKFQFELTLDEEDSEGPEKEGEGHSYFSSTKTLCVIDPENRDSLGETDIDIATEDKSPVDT
# Procedure: as §1, §2, §3, §4, §5, §6
# [5] = test system: MDCK cells; assay: Reduction of intracellular cAMP levels in forskolin stimulated MDCK cells (Experiment 2); type: cell-based, canine; conditions: 10 μM compound for 10 min prior to forskolin (10 μM) for 2 min; FIG. 6
# Procedure: as §7, §8
smiles,measurement,setting,value
"CCc1nc(-c2ccc(Cl)c(F)c2)nn1CC(=O)NCc1cccc(F)c1 [Example A, N-(3-Fluorobenzyl)-2-[3-(4-chloro-3-fluorophenyl)-5-ethyl-1H-1,2,4-triazol-1-yl]acetamide]",PDE4A4 activity (mean % increase in counts over basal activity without added compound),[1]; 1 μM compound,1.1%
same,PDE4A4 activity (mean % increase in counts over basal activity without added compound),[1]; 3 μM compound,2.7%
same,PDE4A4 activity (mean % increase in counts over basal activity without added compound),[1]; 10 μM compound,10.4%
same,PDE4A4 activity (mean % increase in counts over basal activity without added compound),[1]; 30 μM compound,38.5%
same,PDE4A4 activity (mean % increase in counts over basal activity without added compound),[1]; 50 μM compound,65.4%
same,intracellular cAMP levels in HEK293 cells (in words),[2],reduction in intracellular cAMP levels
same,abnormal effects observed in the rats,[3]; 2 mg/kg i.v. or 10 mg/kg p.o.,No abnormal effects were observed
same,half-life,"[3]; rat, iv, 2 mg/kg i.v., plasma, read-out: terminal half life after i.v. dosing (converted)",2.2 h
same,bioavailability,"[3]; rat, oral, 10 mg/kg p.o. vs 2 mg/kg i.v., plasma",100%
same,half-life,"[3]; rat, po, 10 mg/kg p.o., plasma, read-out: terminal half life after oral dosing (converted)",9.1 h
same,PDE4B1 activity (mean % increase in counts over basal activity without added compound),[4]; 1 μM compound,−2.4%
same,PDE4B1 activity (mean % increase in counts over basal activity without added compound),[4]; 3 μM compound,4.9%
same,PDE4B1 activity (mean % increase in counts over basal activity without added compound),[4]; 10 μM compound,22.0%
same,PDE4B1 activity (mean % increase in counts over basal activity without added compound),[4]; 30 μM compound,61.3%
same,PDE4B1 activity (mean % increase in counts over basal activity without added compound),[4]; 50 μM compound,92.9%
same,intracellular cAMP levels in MDCK cells (in words),[5],reduction in intracellular cAMP levels
